Results on two compounds are retold here after paper PMC9811578 (Chemical Science, 2022).

For data set [1] the following is noted: R. Strutt and coworkers; cited from earlier work.
The nature of the next data set: Horizon-LBA. Type of data set: in vitro ADME. As to conditions: not told.
A further data set can be described thus: PAMPA. In kind it is in vitro ADME. In general terms: In PAMPA a lipid-coated filter parts donor from acceptor wells.

Non-standard residues stand in square brackets, D forms with d. Residues, ends and D or L forms follow the SMILES beside them.

Regarding `Cn1c(=O)c2c(ncn2C)n(C)c1=O` [Caffeine], the “permeability coefficient (DIB of DOPC, UV detector)” value in data set [1] is recorded as 2.81 ± 0.0920 × 10^−4 cm s^−1.
Broadly, the Papp is a coefficient for how fast a substance crosses the barrier. For the compound `COc1ccc(C[C@@H]2NC(=O)[C@@H](CC(C)C)NC(=O)[C@H](C(C)C)NC(=O)[C@H](CC(C)C)NC(=O)[C@@H](CC(C)C)NC(=O)[C@H]3CCCN3C2=O)cc1` [Peptide 1] (cyclo(LV[dL]Y(Me)[dP][dL])), the Papp was 300 ± 100 ×10⁻⁶ cm/s in “Horizon-LBA” and 16.5 ± 0.9 ×10⁻⁶ cm/s in the data set “PAMPA”.
